What was measured:
[1] = tested on: Porphyromonas gingivalis (PG); assay: MIC of individual antimicrobial agents (Example 4); type: cell-based, Porphyromonas gingivalis ATCC 33277; details: Table 18
Text: (§1) The following example illustrates how antimicrobial agents useful in gum compositions of the present invention retard or prevent the growth of dental plaque bacteria present in the oral cavity. In addition, the example illustrates the lowest concentration of various antimicrobial agents that will inhibit visible in vitro growth of a particular bacteria.
(§2) The assay used a microtiter plate to dilute the antimicrobial agent to varying concentrations in order to determine the MIC.
(§3) A bacteria culture was incubated overnight at 37° C. Prior to dilution of the antimicrobial agents as described below, the bacterial culture was spun down at 2000 rpm into a pellet and resuspended in a solution of buffered phosphate. […]
(§4) The 96-well plate was incubated under conditions that varied depending on the particular microorganism. […] Following 48 hours of incubation, the incubated plate was read for microbial growth with a spectraphotometer by optical density (OD). The well containing the lowest dilution achievable with a spectraphotometer reading below 0.05 OD (i.e., no detectable microbial growth) was considered representative for the antimicrobial agent. The MIC for the agent was determined by accounting for the starting stock solution concentration and the resulting dilutions in the 96-well plate. […]

[2] = tested on: Fusobacterium nucleatum (FN); assay: MIC of individual antimicrobial agents (Example 4); type: cell-based, Fusobacterium nucleatum ATCC 10933; details: Table 18
Text: as §1, §2, §3, §4

[3] = tested on: Streptococcus sanguis (SS); assay: MIC of individual antimicrobial agents (Example 4); type: cell-based, Streptococcus sanguis ATCC 49295; details: Table 18
Text: as §1, §2, §3, §4

[4] = tested on: Porphyromonas gingivalis (PG); assay: MIC of agents alone and in two-agent combination (Example 1); type: cell-based, Porphyromonas gingivalis ATCC 33277; details: concentration of chloramphenicol (agent A)
Description: (§5) The following example illustrates how the MIC of individual antimicrobial agents that are combined were determined and also illustrates how the MIC of the antimicrobial agents in combination were determined.
(§6) A microtiter plate was used to dilute the antimicrobial agents to varying concentrations in order to determine the MIC of those antimicrobial agents alone and the MIC of the agents when combined.
(§7) A bacterial culture was incubated at 37° C. Prior to the dilution of the antimicrobial agents as described below, the bacterial culture was spun down at 2,000 rpm into a pellet and resuspended in a solution of buffered phosphate. The innoculum was normalized with a spectrophotometer to an optical density at 550 nanometers of between 0.180-0.220 (equivalent to 5.0×10^7 colony forming units, CFU per milliliter). The innoculum was set aside until the completion of the antimicrobial agent dilution. […]
(§8) Following 48 hours of incubation, the incubated plate was read for microbial growth with a spectrophotometer by optical density (OD). The well containing the lowest dilution achievable for each agent with a spectrophotometer reading below 0.05 OD (i.e., no detectable microbial growth) was considered representative for the combination. The MIC for each agent in the combination was determined by accounting for the starting stock solution concentration and the resulting dilutions in the 96-well plate. […]

[5] = tested on: Actinomyces viscosus (AV); assay: as above; type: cell-based, Actinomyces viscosus ATCC 19246; details: concentration of chloramphenicol (agent A)
Description: as §5, §6, §7, §8

[6] = tested on: Streptococcus sanguis (SS); assay: as above; type: cell-based, Streptococcus sanguis ATCC 49295; details: concentration of chloramphenicol (agent A)
Description: as §5, §6, §7, §8

[7] = tested on: Fusobacterium nucleatum (FN); assay: as above; type: cell-based, Fusobacterium nucleatum ATCC 10933; details: concentration of chloramphenicol (agent A)
Description: as §5, §6, §7, §8

[8] = tested on: Streptococcus mutans (SM); assay: MIC of individual antimicrobial agents (Example 4); type: cell-based, Streptococcus mutans ATCC 25175; details: Table 18
Text: as §1, §2, §3, §4

[9] = tested on: Actinomyces viscosus (AV); assay: MIC of individual antimicrobial agents (Example 4); type: cell-based, Actinomyces viscosus ATCC 19246; details: Table 18
Text: as §1, §2, §3, §4

[10] = tested on: Streptococcus mutans (SM); assay: MIC of agents alone and in two-agent combination (Example 1); type: cell-based, Streptococcus mutans ATCC 25175; details: concentration of chloramphenicol (agent A)
Description: as §5, §6, §7, §8

SMILES: O=C(NC(CO)C(O)c1ccc([N+](=O)[O-])cc1)C(Cl)Cl (stereo not shown) [CR1, 2,2-dichloro-N-[2-hydroxyl-1-(hydroxymethyl)-2-(4-nitrophenyl)ethyl]acetamide]
- MIC [1]: 6.3 µg/mL
- MIC [2]: 3.1 µg/mL
- MIC [3]: 3.1 µg/mL
- MIC of Chloramphenicol alone and when combined with Agent B [4]: 6.9 µg/mL
- MIC of Chloramphenicol alone and when combined with Agent B [5]: 5.4 µg/mL
- MIC of Chloramphenicol alone and when combined with Agent B [6]: 3.2 µg/mL
- MIC of Chloramphenicol alone and when combined with Agent B [7]: 1.8 µg/mL
- MIC [8]: 3.1 µg/mL
- MIC [9]: 3.1 µg/mL
- MIC of Chloramphenicol alone and when combined with Agent B [10]: 5.2 µg/mL
